Test [1] has as its target T1, G12C K-Ras4B (1-169) (Homo sapiens, UniProt P01116, G12C).
T1 construct: G12C K-Ras4B (1-169) protein, which was a KRAS G12C mutant; His tag (N, cleaved yes); made in house; host or cells: E. coli BL21 (DE3)
Put plainly: Binding to KRAS G12C mutant, compound binding rate by LC-MS. Particulars: final compound concentration 2 μM, 1 μM protein, 2 hours at 25° C. An excerpt:
K-Ras4B (1-169) protein was expressed in E. coli strain BL21 (DE3) by synthesizing a nucleotide sequence encoding the amino acid sequence represented by GenPept ID NP_004976 as a sequence optimized for E. coli by use of GeneArt Technology (Life Technologies Corp.) such that the protein was N-terminally His-tagged and fused with a TEV protease recognition sequence (ENLYFQG). The expressed His-tagged K-Ras4B (1-169) was purified through a Ni column, then cleaved at its tag with N-terminally His-tagged TEV protease, and passed through a Ni column again to recover a flow-through fraction, which was further purified by anion-exchange chromatography to obtain the protein. G12C K-Ras4B (1-169) protein, which was a KRAS G12C mutant, was obtained in the same way as in the K-Ras4B(1-169) protein except that glycine at position 12 of the amino acid sequence represented by GenPept ID NP_004976 was mutated to cysteine.
The K-Ras4B (1-169) protein and the G12C K-Ras4B (1-169) protein were mixed and diluted with a buffer solution (1×TBS and 0.1 mM TCEP) to prepare a protein solution containing 1 μM each of the proteins. Each test compound was dissolved at 10 mM in DMSO and further diluted 10-fold with DMSO to make a 1 mM solution. Then, the solution was diluted 5-fold with DMSO to make a 200 μM solution. The 200 μM solution was further diluted 5-fold to make a […] solution. 1 μL of the 40 μM test compound was added to 19 μL of the 1 μM protein solution such that the final compound concentration was 2 μM. The mixture was stored for 2 hours in an incubator of 25° C., and the reaction was terminated by the addition of 80 μL of a 1×TBS solution containing 0.2% formic acid, followed by LC-MS measurement.
The LC-MS measurement was performed by using Xevo G2-S Q-Tof manufactured by Waters Corp., performing reverse-phase chromatography with a desalting column, and obtaining mass spectra of positive ions by electrospray. For the mass spectra, spectra of polyvalent ions were collectively converted to molecular weights by the MaxEnt technique using OpenLynx software, and then, a compound binding rate was obtained from the ratio of […].
The binding rates of test compounds having a final compound concentration of 2 μM for G12C K-Ras4B (1-169) are shown in the table below. The binding rate for G12C K-Ras4B (1-169) is rated “A” for 80% or more, “B” for 60% or more and less than 80%, “C” for 40% or more and less than 60%, “D” for 20% or more and less than 40%, and “E” for less than 20%.

Test [2] concerns the target T2, KRAS G12C mutant (Homo sapiens, UniProt P01116, G12C).
T2 construct: 50 μM G12C K-Ras4B (1-169) protein and 1 mM BODIPY® FL GDP; His tag (N, cleaved yes); made in house; host or cells: E. coli BL21 (DE3)
Put plainly: Inhibition of SOS1-mediated nucleotide (GDP-GTP) exchange reaction of KRAS G12C mutant, BODIPY FL GDP fluorescence. The test is classed as biochemical. Particulars: preincubated 25° C. 4 hours with 25 nM KRAS G12C bound with BODIPY FL GDP; SOS1 100 nM, GppNHp 1 μM, 30 minutes. An excerpt: SOS1 protein was expressed in E. coli strain BL21 (DE3) by synthesizing a nucleotide sequence encoding the amino acid sequence represented by GenPept ID NP_005624 as a sequence optimized for E. coli by use of GeneArt Technology (Life Technologies Corp.) such that the protein was N-terminally His-tagged and fused with a TEV protease recognition sequence (ENLYFQG). The expressed His-tagged SOS1 (564-1049) was purified through a Ni column, then cleaved at its tag with N-terminally His-tagged TEV protease, and passed through a Ni column again to recover a flow-through fraction to obtain the protein.
Each compound was studied for its inhibitory effect on the exchange reaction of GDP into GppNHp in BODIPY® FL bound with the KRAS G12C mutant by fluorescence measurement using the G12C K-Ras4B (1-169) protein and the SOS1 protein.
For the preparation of the KRAS G12C mutant bound with BODIPY® FL GDP, first, 50 μM G12C K-Ras4B (1-169) protein and 1 mM BODIPY® FL GDP (Invitrogen Corp., G22360) were incubated for 1 hour in a buffer solution (20 mM Tris-HCl (pH 7.5), 50 mM NaCl, and 1 mM DTT) in ice in the presence of 2.5 mM EDTA. Then, MgCl2 was added thereto at a final concentration of 10 mM, then the mixture was incubated at room temperature for 30 minutes, and then, the protein was passed through a NAP-5 column for removal of free nucleotides and used for compound evaluation.
For the measurement of the inhibitory activity of compounds against nucleotide exchange reaction, first, the compound of the present invention was serially diluted with DMSO. Subsequently, the serially diluted solution of the compound of the present invention in DMSO (final concentration of DMSO: 5%) and the KRAS G12C mutant (25 nM) bound with BODIPY® FL GDP were added into a reaction buffer solution (20 mM Tris-HCl (pH 7.5), 100 mM NaCl, 1 mM MgCl2, 2 mM DTT, and 0.1% Tween 20), and the mixture was preincubated at 25° C. for 4 hours. Then, Son of Sevenless Homolog 1 (SOS1, amino acid region: 564-1049) and GppNHp (GMPPNP, Jena Bioscience GmbH, NU-401-50) were added thereto at final concentrations of 100 nM and 1 μM, respectively, and the mixture was reacted for 30 minutes. The change in fluorescence intensity of BODIPY® FL (excitation wavelength: 485 nm, fluorescence wavelength: 520 nm) between immediately after the start of reaction and after 30 minutes from the start of reaction was standardized, and then, the compound concentration at which 50% inhibition was achieved was calculated as IC50 (nM) when the signal value for only DMSO was defined as 0% inhibition and the signal value for no addition of GppNHp was defined as 100% inhibition.

Turning to `C=CC(=O)N1CC(NC(=O)c2ccc(CNc3cc(C(=C)C)c(Cl)cc3O)o2)C1` [Example 47, N-(1-Acryloylazetidin-3-yl)-5-(((4-chloro-2-hydroxy-5-(prop-1-en-2-yl)phenyl)amino)methyl)furan-2-carboxamide], the “binding rate for G12C K-Ras4B (1-169)” value in test [1] was “D (20% or more and less than 40%)”. The midpoint of inhibition in test [2], the IC50, lay at 4740 nM.
As to `C=CC(=O)N1CC(NC(=O)c2ccc(CNc3cc(C(C)C)c(Cl)cc3O)o2)C1` [Example 48, N-(1-Acryloylazetidin-3-yl)-5-(((4-chloro-2-hydroxy-5-isopropylphenyl)amino)methyl)furan-2-carboxamide], the “binding rate for G12C K-Ras4B (1-169)” value in test [1] was “D (20% or more and less than 40%)”. In addition, the IC50 (commonly the midpoint of a concentration-inhibition curve) in test [2] was determined as 3970 nM.
Take `C=CC(=O)N1CC(N(C)C(=O)c2ccc(CNc3cc(OC(F)(F)F)c(Cl)cc3O)o2)C1` [Example 49, N-(1-Acryloylazetidin-3-yl)-5-(((4-chloro-2-hydroxy-5-(trifluoromethoxy)phenyl)amino)methyl)-N-methylfuran-2-carboxamide]: the “binding rate for G12C K-Ras4B (1-169)” value in test [1] is given as “E (less than 20%)”. The compound also showed an IC50 in test [2] of 1140 nM.
Turning to `C=CC(=O)N1CC(NC(=O)c2ccc(CNc3cc(C(F)(F)F)c(Cl)cc3O)o2)C1` [Example 50, N-(1-Acryloylazetidin-3-yl)-5-(((4-chloro-2-hydroxy-5-(trifluoromethyl)phenyl)amino)methyl)furan-2-carboxamide], in test [1], the “binding rate for G12C K-Ras4B (1-169)” value was “D (20% or more and less than 40%)”. In addition, in test [2], inhibition was half-maximal at 3140 nM (IC50).
For the compound `C=CC(=O)N1CC(NC(=O)c2ccc(CNc3cc(C4CC4(F)F)c(Cl)cc3O)o2)C1` (stereo not shown) [Example 51, N-(1-Acryloylazetidin-3-yl)-5-(((4-chloro-5-(2,2-difluorocyclopropyl)-2-hydroxyphenyl)amino)methyl)furan-2-carboxamide], in test [1], the “binding rate for G12C K-Ras4B (1-169)” value was “C (40% or more and less than 60%)”. Further, 763 nM corresponded to half-maximal inhibition in test [2] (IC50).
As for `C=CC(=O)N1CC(NC(=O)c2ccc(CNc3cc(C4CC4)c(Cl)cc3O)o2)C1` [Example 52, N-(1-Acryloylazetidin-3-yl)-5-(((4-chloro-5-cyclopropyl-2-hydroxyphenyl)amino)methyl)furan-2-carboxamide], in test [1], the “binding rate for G12C K-Ras4B (1-169)” value was “D (20% or more and less than 40%)”. Moreover, in test [2], the IC50 is 2090 nM.
Consider `C=CC(=O)N1CC(NC(=O)c2ccc(CNc3cc(C4CCC4)c(Cl)cc3O)o2)C1` [Example 53, N-(1-Acryloylazetidin-3-yl)-5-(((4-chloro-5-cyclobutyl-2-hydroxyphenyl)amino)methyl)furan-2-carboxamide], for which the “binding rate for G12C K-Ras4B (1-169)” value in test [1] is “E (less than 20%)”. Further, it took 5970 nM to reach half-maximal inhibition in test [2] (IC50).
On to `C=CC(=O)N1CC(NC(=O)c2cnc(CNc3cc(C(F)(F)F)c(Cl)cc3O)n2C)C1` [Example 54, N-(1-Acryloylazetidin-3-yl)-2-(((4-chloro-2-hydroxy-5-(trifluoromethyl)phenyl)amino)methyl)-1-methyl-1H-imidazole-5-carboxamide], for which the “binding rate for G12C K-Ras4B (1-169)” value in test [1] was “C (40% or more and less than 60%)”. In addition, half-maximal inhibition in test [2] (IC50) required 420 nM.
As for `C=CC(=O)N1CC(NC(=O)c2cnc(CNc3cc(C4CC4(F)F)c(Cl)cc3O)n2C)C1` (stereo not shown) [Example 55, N-(1-Acryloylazetidin-3-yl)-2-(((4-chloro-5-(2,2-difluorocyclopropyl)-2-hydroxyphenyl)amino)methyl)-1-methyl-1H-imidazole-5-carboxamide], in test [1], the “binding rate for G12C K-Ras4B (1-169)” value was “C (40% or more and less than 60%)”. The compound further registered a concentration for half-maximal inhibition (IC50) in test [2] of 122 nM.
On to `C=CC(=O)N1CC(NC(=O)c2cnc(CNc3cc(CC(F)(F)F)c(Cl)cc3O)n2C)C1` [Example 56, N-(1-Acryloylazetidin-3-yl)-2-(((4-chloro-2-hydroxy-5-(2,2,2-trifluoroethyl)phenyl)amino)methyl)-1-methyl-1H-imidazole-5-carboxamide], for which, in test [1], the “binding rate for G12C K-Ras4B (1-169)” value is reported as “E (less than 20%)”. Half-maximal inhibition in test [2] (IC50) required 599 nM.
Turning to `C=CC(=O)N1CC(NC(=O)c2cnc(CNc3cc(C(=C)C(F)(F)F)c(Cl)cc3O)n2C)C1` [Example 57, N-(1-Acryloylazetidin-3-yl)-2-(((4-chloro-2-hydroxy-5-(3,3,3-trifluoroprop-1-en-2-yl)phenyl)amino)methyl)-1-methyl-1H-imidazole-5-carboxamide], in test [1], the “binding rate for G12C K-Ras4B (1-169)” value is “D (20% or more and less than 40%)”. Moreover, the midpoint of inhibition in test [2], the IC50, lay at 522 nM.
As for `C=CC(=O)N1CC(NC(=O)c2cnc(CNc3cc(S(F)(F)(F)(F)F)c(Cl)cc3O)n2C)C1` [Example 58, N-(1-Acryloylazetidin-3-yl)-2-(((4-chloro-2-hydroxy-5-(pentafluoro-λ6-sulfaneyl)phenyl)amino)methyl)-1-methyl-1H-imidazole-5-carboxamide], in test [1], the “binding rate for G12C K-Ras4B (1-169)” value was “D (20% or more and less than 40%)”. The compound further displayed an IC50 in test [2] of 995 nM.
As to `C=CC(=O)N1CC(NC(=O)c2cnc(CNc3cc(C(C)C(F)(F)F)c(Cl)cc3O)n2C)C1` (stereo not shown) [Example 59, N-(1-Acryloylazetidin-3-yl)-2-(((4-chloro-2-hydroxy-5-(1,1,1-trifluoropropan-2-yl)phenyl)amino)methyl)-1-methyl-1H-imidazole-5-carboxamide], the “binding rate for G12C K-Ras4B (1-169)” value in test [1] was “B (60% or more and less than 80%)”. Besides, it took 140 nM to reach half-maximal inhibition in test [2] (IC50).
Regarding `C=CC(=O)N1CC(NC(=O)c2cnc(CNc3cc(C(C)C)c(Cl)cc3O)n2C)C1` [Example 60, N-(1-Acryloylazetidin-3-yl)-2-(((4-chloro-2-hydroxy-5-isopropylphenyl)amino)methyl)-1-methyl-1H-imidazole-5-carboxamide], in test [1], the “binding rate for G12C K-Ras4B (1-169)” value is reported as “A (80% or more)”. For the same compound, it took 37 nM to reach half-maximal inhibition in test [2] (IC50).

The record behind these values is patent US12479834B2, “Phenol compound or salt thereof” (TAIHO PHARMACEUTICAL CO., LTD., priority 2019, dated 2025).
